Test results from US4789675A, “1,4-benzoxazine derivatives and pharmaceutical use” (priority 1986, dated 1988).
Structures can show the parent of a compound that is named as a salt. Where two headings read alike, the source gives them in different places.

Key:
[1] = test system: caffeine-induced contraction of rabbit aorta strip depending on intracellular Ca^++; test: Intracellular Ca++ antagonism: inhibition of caffeine-induced contraction of aorta strip in Ca-free/EGTA solution; conditions: Oryctolagus cuniculus, caffeine 20 mM, Ca++ 0 mM, EGTA 5 mM, read-out: Inhibitory percent (caffeine contraction); for inhibition at 10 µM: compound 10^-5 M; for inhibition at 1 µM: compound 10^-6 M
Procedure: A spiral strip of aorta of a rabbit (2 to 3 mm width, aobut 3 cm length) was allowed to equilibrate by hanging under 2 g force in a Krebs-Henseleitsolution. The solution was saturated with a mixture gas of 97% O2 -3% CO2, which was warmed to 37° C. The strip was moved into another Krebs-Henseleit solution containing Ca^++ OmM and EGTA 5 mM. Five minutes later, caffeine (20 mM) was added to the solution. The resulting contraction of the strip was made as the index of the contraction depending on intracellular Ca^++.

[2] = test system: Spontaneously hypertensive rats; test: Antihypertensive action in spontaneously hypertensive rats (tail-cuff); format: in vivo, rat; conditions: 1 hour after administration
Procedure: Spontaneously hypertensive rats (male, 12 to 13 weeks old, blood pressure before administration of drug was about 200 mmHg) were used in groups of 3 individuals. After measuring tail arterial pressure of these animals by the tail-cuff method, the animals were orally given 3 to 60 mg/kg of each test compound of this invention as 2 ml of its suspension in gum arabic. Blood pressure measurements were made again one hour after administration of each test compound.

[3] = test system: contraction of rabbit aorta strip caused by KCl; test: Vasodilating action: inhibition of contraction of aorta strip caused by KCl; conditions: Oryctolagus cuniculus, compound 10^-5 M, KCl (6.0 mM), read-out: Inhibitory percent against contraction (KCl)
Procedure: (§1) A spiral strip of aorta of a rabbit (2 to 3 mm width, about 3 cm length) was allowed to equilibrate by hanging under 2 g force in a Krebs-Henseleitsolution. The solution was saturated with a mixture gas of 97% O2 -3% CO2 which was warmed to 37° C. Inhibitory actions of compounds (10^-5 M) of this invention against contraction of the aorta strip caused by KCl ([…]), norepinephrine (NE) (10^-6 M) or serotonin (5-HT) (10^-6 M), by treating the strip with a compound of this invention 30 minutes before the test (15 minutes in the case of 5-HT), are shown in Table 1 as inhibitory percentage.

[4] = test system: contraction of rabbit aorta strip caused by norepinephrine (NE); test: Vasodilating action: inhibition of contraction of aorta strip caused by norepinephrine (NE); conditions: Oryctolagus cuniculus, compound 10^-5 M, NE 10^-6 M, read-out: Inhibitory percent against contraction (NE)
Procedure: as §1

[5] = test system: contraction of rabbit aorta strip caused by serotonin (5-HT); test: Vasodilating action: inhibition of contraction of aorta strip caused by serotonin (5-HT); conditions: Oryctolagus cuniculus; compound 10^-5 M; 5-HT 10^-6 M; treated 15 minutes before the test; read-out: Inhibitory percent against contraction (5-HT)
Procedure: as §1

[6] = Acute toxicity (oral, 7 days observation); conditions: rat, in vivo, male rats, five animals/group, seven days
From the text: Male Wister rats aged five weeks (five animals/group) were orally given the test compounds (Example No. 1, 14, 15 and 18) suspended in a 5% solution of gum arabic. Each animal so treated was observed over a period of seven days.

[7] = test system: acute renal failure in rats; test: Effect on acute renal failure in rats (plasma urea nitrogen, BUN); format: in vivo, rat; conditions: p.o., control 27 ± 1, *P < 0.05
Procedure: Male sprague-Dawley rats, 6 week old, were orally given the compunds or tap water at a volume of 5 ml/kg. After one hour, the animals were anesthetized with sodium pentobarbital. The animals were subjected to laparotomy, and the left renal artery was clamped completely for one hour. The clamp was undone, and the incision was closed. The animals were again given orally the compounds or tap water 20 hours later. Further four hours later, the animals were again anesthetized, and the blood was obtained from the abdominal aorta. The plasma was separated for measurement of urea nitrogen (BUN).

[8] = test system: ischemia-reperfusion-induced ventricular arrhythmia in rats; test: Effect on the ischemia-reperfusion-induced ventricular arrhythmia in rats; format: in vivo, rat; conditions: p.o., rats with change/rats used; for Cardiac arrest incidence: control 8/18; for Ventricular fibrillation incidence: control 17/18; for Ventricular tachycardia incidence: control 18/18
Procedure: Male Sprague-Dawley rats, 9 to 10 week old, were orally given the compounds or tap water at a volume of 5 ml/kg. After one hour, the animals were anesthetized with sodium pentobarbital (50 mg/kg, by intraperitoneal injection), and they were subjected to thoractomy under artificial respiration, and the left anterior descending coronary artery was occluded for five minutes. The incidences of ventricular tachycardia, ventricular fibrilation and cardiac arrest for ten minutes after reperfusion of the blood were calculated.

[9] = treated 30 minutes before the test
[10] = treating 3 hours before the test (*1)

Compound | inhibition at 10 µM [3, 9] [%] | inhibition at 10 µM [4, 9] [%] | Antihypertensive effect (Δ mm Hg) ([2]; 3 mg/kg oral) [mm Hg] | further results
O=C1Nc2c(ccc3c2CCCC3)OC1CCCN1CCN(c2ccc(F)cc2)CC1 (stereo not shown) [Example 10] |  |  |  | inhibition at 10 µM [1]: 59%; Antihypertensive effect (Δ mm Hg) ([2]; 10 mg/kg oral): 23 mm Hg
Cc1ccc2c(c1)NC(=O)C(CCN1CCN(c3ccc(F)cc3)CC1)O2 (stereo not shown) [Example 5] | 9 | 86 |  | inhibition at 10 µM [1]: 58%; inhibition at 10 µM [5]: 100%
O=C1Nc2cc3c(cc2OC1CCCN1CCN(c2ccc(O)cc2)CC1)CCCC3 (stereo not shown) [Example 21] | 26 | 99 |  | inhibition at 1 µM [1]: 54%
O=C1Nc2cc3c(cc2O[C@@H]1CCCN1CCN(c2ccc(F)cc2)CC1)CCCC3 [Example 31, (R)-(+)-2-{3-[4-(4-fluorophenyl)-1-piperazinyl]propyl}-6,7,8,9-tetrahydro-2H-naphtho[2,3-b][1,4]oxazin-3(4H)-one] | 30 | 99 | 21 | 
CC(=O)Nc1ccc2c(c1)NC(=O)C(CCCN1CCN(c3ccc(F)cc3)CC1)O2 (stereo not shown) [Example 25, 6-acetamido-2-{3-[4-(4-fluorophenyl)-1-piperazinyl]propyl}-2H-1,4-benzoxazin-3(4H)-one] | 9 | 100 |  | Antihypertensive effect (Δ mm Hg) ([2]; 60 mg/kg oral): 81 mm Hg
O=C1Nc2cc(Cl)ccc2OC1CCCN1CCN(c2ccc(F)cc2)CC1 (stereo not shown) [Example 7] | 29 | 98 |  | inhibition at 10 µM [5]: 81%
O=C1Nc2cc3c(cc2OC1CCCN1CCN(c2ccccc2)CC1)CCCC3 (stereo not shown) [Example 18] |  |  | 32 | inhibition at 1 µM [1]: 59%; LD50 at 168 h [6]: ≥ 300 mg/kg
O=C1Nc2cc3c(cc2OC1CCCCN1CCN(c2ccc(F)cc2)CC1)CCCC3 (stereo not shown) [Example 22] | 14 | 95 | 23 | inhibition at 10 µM [5]: 38%
O=C1Nc2cc3c(cc2OC1CCCN1CCN(c2ccc(F)cc2)CC1)OCO3 (stereo not shown) [Example 13] | 24 | 100 | 27 | 
O=C1Nc2cc3c(cc2OC1CCCN1CCN(c2ccc(F)cc2)CC1)CCC3 (stereo not shown) [Example 12] | 21 | 100 | 20 | 
O=C1Nc2ccccc2OC1CCCN1CCN(c2ccc(F)cc2)CC1 (stereo not shown) [Example 2] |  | 100 |  | inhibition at 10 µM [3, 10]: 73%; Antihypertensive effect (Δ mm Hg) ([2]; 60 mg/kg oral): 44 mm Hg
O=C1Nc2cc3c(cc2O[C@H]1CCCN1CCN(c2ccc(F)cc2)CC1)CCCC3 [Example 30, (S)-(-)-2-{3-[4-(4-fluorophenyl)-1-piperazinyl]propyl}-6,7,8,9-tetrahydro-2H-naphtho[2,3-b][1,4]oxazin-3(4H)-one] | 33 | 73 | 21 | 
Cc1ccc2c(c1)NC(=O)C(CCCN1CCN(c3ccc(F)cc3)CC1)O2 (stereo not shown) [Example 3] | 10 | 99 |  | inhibition at 10 µM [1]: 60%; inhibition at 10 µM [5]: 91%; Antihypertensive effect (Δ mm Hg) ([2]; 60 mg/kg oral): 45 mm Hg
CCOC(=O)c1ccc2c(c1)OC(CCCN1CCN(c3ccc(F)cc3)CC1)C(=O)N2 (stereo not shown) [Example 8] | 33 | 98 |  | Antihypertensive effect (Δ mm Hg) ([2]; 60 mg/kg oral): 35 mm Hg
O=C1Nc2cc3c(cc2OC1CCCN1CCN(c2cccc(F)c2)CC1)CCCC3 (stereo not shown) [Example 14] |  |  | 54 | inhibition at 1 µM [1]: 61%; LD50 at 168 h [6]: ≥ 300 mg/kg
O=C1Nc2c(ccc3c2CCC3)OC1CCCN1CCN(c2ccc(F)cc2)CC1 (stereo not shown) [Example 28, 5,6-cyclopenteno-2-{3-[4-(4-fluorophenyl)-1-piperazinyl]propyl}-2H-1,4-benzoxazin-3(4H)-one] | 28 | 100 | 20 | 
O=C1Nc2cc3c(cc2OC1CCCN1CCN(c2ccc(F)cc2)CC1)CCCC3 (stereo not shown) [1 (2HCl salt), 2-{3-[4-(4-fluorophenyl)-1-piperazinyl]propyl}-6,7,8,9-tetrahydro-2H-naphtho[2,3-b][1,4]oxazin-3(4H)-one] |  |  | 30 | inhibition at 10 µM [3, 10]: 82%; inhibition at 10 µM ([4]; treating 2 hours before the test (*2)): 95%; inhibition at 10 µM [5]: 52%; Antihypertensive effect (Δ mm Hg) ([2]; 10 mg/kg oral): 50 mm Hg; BUN ([7]; 1 mg/kg): 24 ± 0.5 mg/dL; BUN ([7]; 3 mg/kg): 22 ± 2 mg/dL; BUN ([7]; 10 mg/kg): 23 ± 0.5 mg/dL; Cardiac arrest incidence ([8]; 3 mg/kg): 2/9; Ventricular fibrillation incidence ([8]; 3 mg/kg, *P < 0.05): 5/9; Ventricular tachycardia incidence ([8]; 3 mg/kg): 7/9; Cardiac arrest incidence ([8]; 10 mg/kg): 4/11; Ventricular fibrillation incidence ([8]; 10 mg/kg, **P < 0.01): 5/11; Ventricular tachycardia incidence ([8]; 10 mg/kg, **P < 0.01): 7/11; Cardiac arrest incidence ([8]; 20 mg/kg): 0/5; Ventricular fibrillation incidence ([8]; 20 mg/kg, **P < 0.01): 0/5; Ventricular tachycardia incidence ([8]; 20 mg/kg, **P < 0.01): 2/5
COc1ccccc1N1CCN(CCCC2Oc3cc4c(cc3NC2=O)CCCC4)CC1 (stereo not shown) [Example 15] | 8 | 100 | 49 | inhibition at 1 µM [1]: 58%; LD50 at 168 h [6]: ≥ 300 mg/kg
O=C1Nc2cc(C(F)(F)F)ccc2OC1CCCN1CCN(c2ccc(F)cc2)CC1 (stereo not shown) [Example 27, 2-{3-[4-(4-fluorophenyl)-1-piperazinyl]propyl}-6-trifluoromethyl-2H-1,4-benzoxazin-3(4H)-one] | 36 | 98 |  | 
O=C1Nc2cc([N+](=O)[O-])ccc2OC1CCCN1CCN(c2ccc(F)cc2)CC1 (stereo not shown) [Example 6, 2-{3-[4-(4-fluorophenyl)-1-piperazinyl]propyl}-6-nitro-2H-1,4-benzoxazin-3(4H)-one] | 37 | 100 |  | inhibition at 10 µM [5]: 81%; Antihypertensive effect (Δ mm Hg) ([2]; 60 mg/kg oral): 43 mm Hg
Nc1ccc2c(c1)NC(=O)C(CCCN1CCN(c3ccc(F)cc3)CC1)O2 (stereo not shown) [Example 24, 6-amino-2-{3-[4-(4-fluorophenyl)-1-piperazinyl]propyl}-2H-1,4-benzoxazin-3(4H)-one] |  |  |  | Antihypertensive effect (Δ mm Hg) ([2]; 60 mg/kg oral): 60 mm Hg
CN1C(=O)C(CCCN2CCN(c3ccc(F)cc3)CC2)Oc2cc3c(cc21)CCCC3 (stereo not shown) [Example 23, 2-{3-[4-(4-fluorophenyl)-1-piperazinyl]propyl}-6,7,8,9-tetrahydro-4-methyl-2H-naphtho[2,3-b][1,4]oxazin-3(4H)-one] |  |  |  | inhibition at 1 µM [1]: 42%
Cc1ccc(N2CCN(CCCC3Oc4cc5c(cc4NC3=O)CCCC5)CC2)cc1 (stereo not shown) [Example 17] |  |  | 26 | 
